This is an account of results in publication PMC5357154 (Cell chemical biology, 2017).

One assay has as its target T1, caspase-9 (Homo sapiens, UniProt P55211).
T1 sequence (P55211 1-315 limits assumed): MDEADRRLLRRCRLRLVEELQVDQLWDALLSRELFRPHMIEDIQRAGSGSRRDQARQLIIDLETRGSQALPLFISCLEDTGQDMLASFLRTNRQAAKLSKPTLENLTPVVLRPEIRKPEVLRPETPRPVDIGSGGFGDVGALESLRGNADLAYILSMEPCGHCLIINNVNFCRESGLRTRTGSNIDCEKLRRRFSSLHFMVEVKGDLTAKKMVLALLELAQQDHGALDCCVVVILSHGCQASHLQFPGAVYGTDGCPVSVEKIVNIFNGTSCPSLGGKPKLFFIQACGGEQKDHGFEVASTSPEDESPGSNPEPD
T1 sequence (P55211 331-416 limits assumed): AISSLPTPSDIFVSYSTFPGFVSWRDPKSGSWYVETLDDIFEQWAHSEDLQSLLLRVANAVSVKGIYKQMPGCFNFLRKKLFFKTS
In words: Caspase catalytic activity IC50 determination, caspase-9. Format: biochemical. Particulars: 200 nM enzyme, 6.5 μM LEHD substrate, tested 26.1 nM to 66 μM.

The target in another assay is T2, caspase-5 (Homo sapiens, UniProt P51878).
T2 sequence (P51878 137-327 limits assumed): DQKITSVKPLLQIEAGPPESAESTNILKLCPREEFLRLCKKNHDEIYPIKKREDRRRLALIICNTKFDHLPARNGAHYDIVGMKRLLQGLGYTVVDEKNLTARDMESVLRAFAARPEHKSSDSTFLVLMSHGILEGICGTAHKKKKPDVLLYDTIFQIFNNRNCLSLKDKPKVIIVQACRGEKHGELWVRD
T2 sequence (P51878 347-434 limits assumed): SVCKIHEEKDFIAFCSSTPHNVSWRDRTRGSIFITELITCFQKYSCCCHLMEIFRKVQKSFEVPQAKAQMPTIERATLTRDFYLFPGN
In words: Caspase catalytic activity IC50 determination, caspase-5. Format: biochemical. The settings on record: 20 nM enzyme, 10 μM LEHD substrate, tested 26.1 nM to 66 μM.

The target in another assay is T3, caspase-1 (Homo sapiens, UniProt P29466).
T3 sequence (P29466 120-297 limits assumed): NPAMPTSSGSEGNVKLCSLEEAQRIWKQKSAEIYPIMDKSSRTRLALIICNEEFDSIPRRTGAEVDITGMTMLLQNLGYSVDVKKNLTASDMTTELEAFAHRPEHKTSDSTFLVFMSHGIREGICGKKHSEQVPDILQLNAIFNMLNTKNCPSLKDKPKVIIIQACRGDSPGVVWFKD
T3 sequence (P29466 317-404 limits assumed): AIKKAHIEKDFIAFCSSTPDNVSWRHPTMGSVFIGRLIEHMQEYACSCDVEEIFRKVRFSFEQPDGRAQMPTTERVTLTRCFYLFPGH
The assay can be described thus: Caspase catalytic activity IC50 determination, caspase-1. The format is biochemical. The settings on record: 2.5 nM enzyme, 6.5 μM WEHD substrate, tested 26.1 nM to 66 μM.

Assay [1] addresses T4, caspase-3 (Homo sapiens, UniProt P42574).
T4 sequence (P42574 29-175 limits assumed): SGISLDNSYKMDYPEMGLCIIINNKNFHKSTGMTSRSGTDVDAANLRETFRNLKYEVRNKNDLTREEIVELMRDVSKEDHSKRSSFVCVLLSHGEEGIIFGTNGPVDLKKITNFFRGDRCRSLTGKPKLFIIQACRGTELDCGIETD
T4 sequence (P42574 176-277 limits assumed): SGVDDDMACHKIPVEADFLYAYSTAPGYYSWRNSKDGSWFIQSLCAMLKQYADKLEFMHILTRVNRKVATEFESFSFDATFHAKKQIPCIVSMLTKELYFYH
The assay can be described thus: Caspase-3 tryptophan fluorescence quenching. The format is binding.

The next assay has as its target T5, caspase-4 (Homo sapiens, UniProt P49662).
T5 sequence (P49662 81-270 limits assumed): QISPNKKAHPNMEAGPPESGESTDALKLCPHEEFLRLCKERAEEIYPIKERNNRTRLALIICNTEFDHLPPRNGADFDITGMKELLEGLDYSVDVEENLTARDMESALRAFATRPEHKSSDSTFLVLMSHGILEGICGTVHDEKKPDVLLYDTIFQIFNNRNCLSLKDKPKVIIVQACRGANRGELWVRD
T5 sequence (P49662 290-377 limits assumed): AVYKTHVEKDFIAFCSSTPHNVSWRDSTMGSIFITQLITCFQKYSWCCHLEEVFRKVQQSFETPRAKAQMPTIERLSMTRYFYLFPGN
In words: Caspase catalytic activity IC50 determination, caspase-4. The format is biochemical. Particulars: 1 nM enzyme, 10 μM LEHD substrate, tested 26.1 nM to 66 μM.

Assay [2] concerns the target T4, caspase-3. The assay can be described thus: Caspase catalytic activity IC50 determination, caspase-3. The settings on record: 200 nM enzyme, 3.3 μM DEVD substrate, tested 26.1 nM to 66 μM. The format is biochemical.
Assay [3] deals with caspases in HeLa and THP-1 cells. In words: Caspase inhibition across cell culture assays. The format is cell-based, human. Particulars: NSAIDs up to 500 μM.

Consider `CC(=O)Oc1ccccc1C(=O)O` [Aspirin], for which the IC50 entry against caspase-9, against caspase-5, against caspase-1, on caspase-4 and against caspase-3 [2] was “No activity” throughout. The compound also returned a Kd at caspase-3 [1] of 1290 ± 10 µM. Further, the “caspase inhibitory capability, rank order across cellular assays” value (“caspase inhibitory capability” below) in assay [3] is “ineffective”.
As to `O=C(O)CCC(=O)c1ccc(-c2ccccc2)cc1` [Fenbufen], the “caspase inhibitory capability” value in assay [3] is given as “substantial inhibitory capabilities”.
Regarding `CC(C)Cc1ccc(C(C)C(=O)O)cc1` (stereo not shown) [Ibuprofen], the IC50 entry on caspase-1 is reported as “No activity”. For the same compound, the “caspase inhibitory capability” value in assay [3] is reported as “weak inhibitors”.
Compound `CC(C(=O)O)c1ccc(N2Cc3ccccc3C2=O)cc1` (stereo not shown) [Indoprofen] displayed an equilibrium dissociation constant (Kd) on caspase-3 [1] of 30 ± 2 µM. Also, in assay [3], the “caspase inhibitory capability” value is “substantial inhibitory capabilities”.
Consider `COc1ccc2cc([C@H](C)C(=O)O)ccc2c1` [Naproxen], for which, in assay [3], the “caspase inhibitory capability” value is recorded as “weak inhibitors”.

The term Kd denotes the free concentration of one partner at which half of the binding sites on the other are occupied at equilibrium, for simple one-to-one binding. Low values mean tighter binding, high ones weaker binding.
